From patent US3985742A, “Process for preparing 3-hydroxymethyl cephalosporins” (priority 1975, dated 1976)
Counter-ions that a name gives are not always drawn. Like-named read-outs stand apart in the source and are kept apart here.

How the values were obtained:
Serratia marcescens = test: disc-plate agar diffusion, antibacterial spectrum; format: cell-based; conditions: 166 μg/ml, 25 °C, 7 mm = no zone, read-out: Inhibition Zone Diameter
Staphylococcus aureus = test: disc-plate agar diffusion, antibacterial spectrum; format: cell-based; conditions: 166 μg/ml, 25 °C, 7 mm = no zone, read-out: Inhibition Zone Diameter
Streptococcus faecalis = test: disc-plate agar diffusion, antibacterial spectrum; format: cell-based; conditions: Enterococcus faecalis; 166 μg/ml; 37 °C; 7 mm = no zone; read-out: Inhibition Zone Diameter
[1] = test system: Escherichia coli, Oxytetracycline-resistant; test: cross-resistance, disc-plate agar diffusion; format: cell-based; conditions: read-out: Inhibition Zone Diameter
Pseudomonas aeruginosa = test: disc-plate agar diffusion, antibacterial spectrum; format: cell-based; conditions: 166 μg/ml, 25 °C, 7 mm = no zone, read-out: Inhibition Zone Diameter
[2] = test system: Staphylococcus aureus (Streptomycin-Streptothricin-resistant); test: disc-plate agar diffusion, antibacterial spectrum; format: cell-based; conditions: read-out: Inhibition Zone Diameter
Brucella bronchiseptica = test: microbe, parasite or virus in culture; format: cell-based; conditions: Bordetella bronchiseptica, read-out: Inhibition Zone Diameter
[3] = test system: Escherichia coli, Neomycin-resistant; test: cross-resistance, disc-plate agar diffusion; format: cell-based; conditions: read-out: Inhibition Zone Diameter
[4] = test system: Escherichia coli, Viomycin-resistant; test: cross-resistance, disc-plate agar diffusion; format: cell-based; conditions: read-out: Inhibition Zone Diameter
Proteus vulgaris [5] = test: disc-plate agar diffusion, antibacterial spectrum; format: cell-based; conditions: 166 μg/ml, 37 °C, 7 mm = no zone, read-out: Inhibition Zone Diameter
Sarcina lutea = test: disc-plate agar diffusion, antibacterial spectrum; format: cell-based; conditions: Micrococcus luteus; 166 μg/ml; 25 °C; 7 mm = no zone; read-out: Inhibition Zone Diameter
[6] = test system: Escherichia coli, Chloramphenicol-resistant; test: cross-resistance, disc-plate agar diffusion; format: cell-based; conditions: read-out: Inhibition Zone Diameter
Escherichia coli W-MB-60 [7] = test: special effects spectrum, disc-plate agar diffusion; format: cell-based; conditions: WMB60, 166 μg/ml, read-out: Inhibition Zone Diameter
Alcaligenes faecalis = test: disc-plate agar diffusion, antibacterial spectrum; format: cell-based; conditions: 166 μg/ml, 37 °C, 7 mm = no zone, read-out: Inhibition Zone Diameter
Vibrio percolans = test: disc-plate agar diffusion, antibacterial spectrum; format: cell-based; conditions: Comamonas terrigena; 166 μg/ml; 27 °C; 7 mm = no zone; read-out: Inhibition Zone Diameter
[8] = test system: Escherichia coli, Streptothricin-resistant; test: cross-resistance, disc-plate agar diffusion; format: cell-based; conditions: read-out: Inhibition Zone Diameter
[9] = test system: Aerobacter cloacae MB-2646; test: enzymatic inactivation by cell-free extract; conditions: for Antibiotic Activity Remaining: start 250 μg/ml
Procedure: The ability of Antibiotic 810A and cephalosporin C to withstand the degradative effect of the culture Aerobacter cloacae (MB-2646) was also determined. This culture is gram-negative and resistant to cephalosporin C. […] The source of the inactivating substance is a 1:160 dilution of the filtrate of an 18 hour 37° C. shake culture of Aerobacter cloacae MB-2646 in nutrient broth containing 0.2% yeast extract. Table XIV, infra, indicates the percent inactivation of Antibiotic 810A, cephalothin, cephaloridine and cephalosporin C on Vibrio percolans (MB-1272) via this method:
Using the same assay procedure as described above, Table XV, infra, indicates the relative resistance of Antibiotic 810A to enzymatic inactivation by Aerobacter cloacae. The starting concentration is 250 μg./ml. Results are expressed in μg./ml.

Proteus morganii 356 [10] = test: mouse protection test, clinical isolate; format: in vivo, mice; conditions: subcutaneous × 2 doses
From the text: In addition to the aforementioned in vivo trials of the product, a clinical isolate of Proteus morganii 356 which is resistant to cephalosporins and capable of degrading cephalosporin C, was employed in a mouse protection test performed in the same manner as reported above.

Proteus morganii 3202 = test: mouse protection test; format: in vivo, mice; design: dose or concentration left out as unconfirmed; conditions: × 2 doses, subcutaneous
Procedure: Methods: The method employed in this characterization is as follows: Female white Swiss mice, average weight 20-23 grams, were infected intraperitoneally with 3-20 times the number of organisms calculated to be lethal for 50% of the infected control animals (3-20 LD50 doses). At the time of infection and again 6 hours later, therapy was given by the designated route. Controls of the virulence of the culture and the toxicity of the antibiotic for uninfected mice were included in the tests. Seven days after infection the test was considered complete and the amount of the antibiotic (I) that would be required to protect 50% of the infected and treated animals was calculated by the method of Knudsen and Curtis; J. Amer. Stat. Assoc. Vol. 42: page 282 (1947).
The method employed in these studies is the same as described above with regard to the in vivo characterization of 810A. The results of these tests are described below in Table XIb:
Administration was by subcutaneous injection. At the completion of the test period, usually seven days after administration, the amount of product required to protect 50% of the mice (ED50) from this otherwise fatal injection was calculated: […]

[11] = test system: Pseudomonas stutzeri MB-1231; test: disc zone bioassay of derivatives; format: cell-based; conditions: Stutzerimonas stutzeri, MB1231, 100γ/ml; read-out: disc zone size
From the text: (§1) Bioassay: the disc zone sizes in the following table are expressed in mm. for 100γ/ml of antibiotic.
(§2) Bioassay: the disc zone sizes in the following table are expressed in mm. for equal concentrations of antibiotic.
(§3) Bioassay: The disc zone sizes in the following table are expressed in mm. for equal concentrations of antibiotic.

Proteus vulgaris [12] = test: disc-plate bioassay using Proteus vulgaris; conditions: for zone of inhibition at 100 µg/mL: read-out: disc zone size
Vibrio percolans MB-1272 = test: disc-plate bioassay using Vibrio percolans; conditions: Comamonas terrigena; for zone of inhibition at 100 µg/mL: MB1272, read-out: disc zone size, 100γ/ml
[13] = test system: Salmonella gallinarum MB-1287; test: disc zone bioassay of derivatives; format: cell-based; conditions: Salmonella enterica, 100γ/ml, read-out: disc zone size
From the text: as §2, §3

[14] = test system: Alcaligenes faecalis MB-9; test: bacterial inactivation by washed bacterial cells; conditions: start 4 mg/ml
Proteus mirabilis 241 = test: bacterial inactivation; conditions: 4 hours; assayed on B. subtilis (MB-964)
Procedure: (§4) These cultures are: Escherichia coli 236, Proteus morganii 251, Proteus morganii 356 and Proteus mirabilis 241. […] In conducting the assay, individual mixtures of the organisms and one of the antibiotics were sampled after four hours incubation and assayed for residual antibiotic activity. The procedure is the same assay method as described above against Alcaligenes faecalis MB-9 and A. viscosus MB-12.

Escherichia coli 236 = test: bacterial inactivation; conditions: 4 hours; assayed on B. subtilis (MB-964)
Procedure: as §4

Proteus morganii 356 [15] = test: bacterial inactivation; conditions: 4 hours; assayed on B. subtilis (MB-964)
Procedure: as §4

Proteus morganii 251 = test: bacterial inactivation; conditions: 4 hours; assayed on B. subtilis (MB-964)
Procedure: as §4

[16] = test system: Alcaligenes viscosus MB-12; test: bacterial inactivation by washed bacterial cells; conditions: 4 hour; assayed on B. subtilis (MB-964); start 4 mg/ml
Escherichia coli W-MB-60 [17] = test: disc zone bioassay of derivatives; format: cell-based; conditions: WMB60, 100γ/ml, read-out: disc zone size
From the text: as §1, §3

[18] = 2 hour, assayed on V. percolans (MB-1272)
[19] = 2 hour, assayed on B. subtilis 964
[20] = 2 hour, assayed on V. percolans 1272

Structure (SMILES): CO[C@@]1(NC(=O)CCC[C@@H](N)C(=O)O)C(=O)N2C(C(=O)O)=C(COC(N)=O)CS[C@@H]21 [Free Acid]
- zone of inhibition at 166 µg/mL (Serratia marcescens): 7 mm
- zone of inhibition at 166 µg/mL (Staphylococcus aureus): 7 mm
- zone of inhibition at 166 µg/mL (Streptococcus faecalis): 7 mm
- zone of inhibition at 166 µg/mL [1]: 23 mm
- zone of inhibition at 166 µg/mL (Pseudomonas aeruginosa): 7 mm
- zone of inhibition at 166 µg/mL [2]: 11 mm
- zone of inhibition at 166 µg/mL (Brucella bronchiseptica): 24 mm
- zone of inhibition at 166 µg/mL [3]: 17 mm
- zone of inhibition at 166 µg/mL [4]: 16 mm
- zone of inhibition at 166 µg/mL (Proteus vulgaris [5]): 22 mm
- zone of inhibition at 166 µg/mL (Sarcina lutea): 10 mm
- zone of inhibition at 166 µg/mL [6]: 17 mm
- zone of inhibition at 166 µg/mL (Escherichia coli W-MB-60 [7]; 0.1 M phosphate buffer pH 7, 25 °C): 29 mm
- zone of inhibition at 166 µg/mL (Escherichia coli W-MB-60 [7]; 0.1 M phosphate buffer pH 9, 25 °C): 22 mm
- zone of inhibition at 166 µg/mL (Escherichia coli W-MB-60 [7]; human blood plasma 20%, 25 °C): 22 mm
- zone of inhibition at 166 µg/mL (Alcaligenes faecalis): 27 mm
- zone of inhibition at 166 µg/mL (Vibrio percolans): 30 mm
- zone of inhibition at 166 µg/mL [8]: 14 mm

Structure (SMILES): CC(=O)OCC1=C(C(=O)O)N2C(=O)[C@@H](NC(=O)Cc3cccs3)[C@H]2SC1 [Cephalothin]
- Percent Inactivation After Incubation With Cell-Free Extract [9, 18]: 66%
- Antibiotic Activity Remaining [9, 19]: 140 µg/mL
- Antibiotic Activity Remaining [9, 20]: 85 µg/mL
- ED50 (average of Two Trials) (Proteus morganii 356 [10]): > 20,000 μg
- protection (Proteus morganii 3202): failed to protect

Structure (SMILES): CO[C@@]1(NC(=O)CCC[C@@H](N)C(=O)O)C(=O)N2C(C(=O)O)=C(CSC(=N)N)CS[C@@H]21 [S-[7β-(D-5-amino-5-carboxyvaleramido)-4-carboxy-7-methoxy-3-cephem-3-yl-methyl]thiouronium]
- zone of inhibition at 100 µg/mL [11]: 22 mm
- zone of inhibition at 100 µg/mL (Proteus vulgaris [12]): 17 mm
- zone of inhibition at 100 µg/mL (Vibrio percolans MB-1272): 27 mm
- zone of inhibition at 100 µg/mL [13]: 23 mm

Structure (SMILES): COC(=Cc1ccc(O)cc1)C(=O)OCC1=C(C(=O)O)N2C(=O)[C@](NC(=O)CCC[C@@H](N)C(=O)O)(OC)[C@H]2SC1 [7β-(D-5-amino-5-carboxyvaleramido)-3-(α-methoxy-p-hydroxycinnamoyloxymethyl)-7-methoxy-3-cephem-4-carboxylic acid]
- IC (25 mm zone) (Proteus vulgaris [12]; read-out: concentration giving a 25 mm zone (bioassay potency)): 167 µg/mL

Structure (SMILES): CC(=O)OCC1=C(C(=O)O)N2C(=O)[C@@H](NC(=O)CCC[C@@H](N)C(=O)O)[C@H]2SC1 [Cephalosporin C, reference compound]
- Percent Inactivation After Incubation With Cell-Free Extract [9, 18]: 96%
- Percent Inactivation After Incubation With Washed Bacterial Cells ([14]; 3 hour, assayed on B. subtilis (MB-964)): > 99%
- Percent Inactivation After Incubation With Washed Bacterial Cells ([14]; 3 hour, assayed on V. percolans (MB-1272)): > 99%
- Percent Inactivation After Incubation With Washed Bacterial Cells ([14]; 4 hour, assayed on B. subtilis (MB-964)): > 99%
- percent inactivation (Proteus mirabilis 241): 72%
- percent inactivation (Escherichia coli 236): > 99%
- percent inactivation (Proteus morganii 356 [15]): > 99%
- percent inactivation (Proteus morganii 251): > 99%
- Percent Inactivation After Incubation With Washed Bacterial Cells [16]: > 99%

Structure (SMILES): CO[C@@]1(NC(=O)CCC[C@@H](N)C(=O)O)C(=O)N2C(C(=O)O)=C(COC(N)=O)CS[C@@H]21 [Disodium Salt of 842A]
- zone of inhibition at 100 µg/mL [11]: 22 mm
- zone of inhibition at 100 µg/mL (Escherichia coli W-MB-60 [17]): 18 mm
- zone of inhibition at 100 µg/mL (Proteus vulgaris [12]): 27 mm
- zone of inhibition at 100 µg/mL (Vibrio percolans MB-1272): 18 mm
- zone of inhibition at 100 µg/mL [13]: 27 mm

Structure (SMILES): O=C(Cc1cccs1)N[C@@H]1C(=O)N2C(C(=O)[O-])=C(C[n+]3ccccc3)CS[C@H]12 [Cephaloridine]
- Antibiotic Activity Remaining [9, 19]: < 10 µg/mL
- Antibiotic Activity Remaining [9, 20]: < 10 µg/mL
- Percent Inactivation After Incubation With Cell-Free Extract ([9]; bacterial culture filtrate, 2 h): 96%
- ED50 (average of Two Trials) (Proteus morganii 356 [10]): 9,270 μg
- protection (Proteus morganii 3202): failed to protect

Structure (SMILES): CO[C@@]1(NC(=O)CCC[C@@H](N)C(=O)O)C(=O)N2C(C(=O)O)=C(CN)CS[C@@H]21 [7β-(D-5-amino-5-carboxyvaleramido)-3-(aminomethyl)-7-methoxy-3-cephem-4-carboxylic acid]
- zone of inhibition at 100 µg/mL [11]: 21 mm
- zone of inhibition at 5 µg/mL (Vibrio percolans MB-1272; MB1272, read-out: disc zone size, 5γ/ml): 20 mm
- zone of inhibition at 100 µg/mL [13]: 21 mm

Structure (SMILES): CO[C@@]1(NC(=O)CCC[C@@H](N)C(=O)O)C(=O)N2C(C(=O)O)=C(COC(N)=O)CS[C@@H]21
- IC (25 mm zone) (Vibrio percolans MB-1272; MB1272, read-out: concentration giving a 25 mm zone, Vibrio percolans): 8 µg/mL

Structure (SMILES): CO[C@@]1(NC(=O)CCC[C@@H](N)C(=O)O)C(=O)N2C(C(=O)O)=C(CSc3nc(C)cs3)CS[C@@H]21 [7β-(D-5-amino-5-carboxyvaleramido)-3-(4-methylthiazol-2-ylmercaptomethyl)-7-methoxy-3-cephem-4-carboxylic acid]
- zone of inhibition at 100 µg/mL [11]: 13.5 mm
- zone of inhibition at 100 µg/mL (Escherichia coli W-MB-60 [17]): 14 mm
- zone of inhibition at 100 µg/mL (Vibrio percolans MB-1272): 20 mm
